This is an account of results in PMC11887051, “Discovery of ONO-2920632 (VU6011887): A Highly Selective and CNS Penetrant TREK-2 (TWIK-Related K+ Channel 2) Preferring Activator In Vivo Tool Compound” (ACS Chemical Neuroscience, 2025).

Series [1] in a line: rat plasma protein binding (equilibrium dialysis). It is filed as in vitro ADME. The conditions noted are these: pH 7.4, read-out: rat plasma fu. The method, then:
(§1) In vitro Plasma protein binding and Brain homogenate binding: Determination of fraction unbound (f u) in plasma was conducted in vitro via equilibrium dialysis using HTDialysis (HTD) membrane plates. The top half of the plate was filled with 100 uL of Dubelco’s Phosphate Buffered Saline, pH 7.4 (DPBS). Compounds were diluted into plasma from each species (5 µM final concentration), which was aliquoted in triplicate to the ‘bottom half’ of the prepared HTD plate wells. The HTD plate was sealed and incubated for 6 hours at 37 °C. Following incubation, each well (both top and bottom halves) were transferred (20 µL) to the corresponding wells of a 96-shallow-well (V-bottom) plate. The daughter plates were then matrix-matched (DPBS side wells received equal volume of plasma, and plasma side wells received equal volume of DPBS), and extraction solution (120 µL; acetonitrile containing 50 nM carbamazepine as IS) was added to all wells of both daughter plates to precipitate protein and extract test article. The plates were then sealed and centrifuged (3500 rcf) for 10 minutes at ambient temperature. Supernatant (60 µL) from each well of the daughter plates was then transferred to the corresponding wells of new daughter plates (96-shallow-well, V bottom) containing water (Milli-Q, 60 µL/well), and the plates were sealed in preparation for LC-MS/MS analysis (see LC-MS/MS analysis method below).
(§2) The unbound fraction (f u) was calculated following the equation below, and mean values for each species were calculated from 3 replicates. […]
(§3) Fraction unbound for both plasma and brain samples was determined using Equation 4.
(§4) Equation 4 Determination of fraction unbound in plasma. […]
In general terms: Equilibrium dialysis compares concentrations on both sides of a semipermeable membrane.

The next series can be described thus: rat PK study. The conditions noted are these: plasma; for clearance: read-out: rat CLp; for Vd: read-out: rat Vss; for half-life: read-out: rat t1/2 (converted). The format is in vivo.
Another series deals with T1, TREK-2 (Homo sapiens, UniProt P57789).
T1 sequence (P57789 1-538): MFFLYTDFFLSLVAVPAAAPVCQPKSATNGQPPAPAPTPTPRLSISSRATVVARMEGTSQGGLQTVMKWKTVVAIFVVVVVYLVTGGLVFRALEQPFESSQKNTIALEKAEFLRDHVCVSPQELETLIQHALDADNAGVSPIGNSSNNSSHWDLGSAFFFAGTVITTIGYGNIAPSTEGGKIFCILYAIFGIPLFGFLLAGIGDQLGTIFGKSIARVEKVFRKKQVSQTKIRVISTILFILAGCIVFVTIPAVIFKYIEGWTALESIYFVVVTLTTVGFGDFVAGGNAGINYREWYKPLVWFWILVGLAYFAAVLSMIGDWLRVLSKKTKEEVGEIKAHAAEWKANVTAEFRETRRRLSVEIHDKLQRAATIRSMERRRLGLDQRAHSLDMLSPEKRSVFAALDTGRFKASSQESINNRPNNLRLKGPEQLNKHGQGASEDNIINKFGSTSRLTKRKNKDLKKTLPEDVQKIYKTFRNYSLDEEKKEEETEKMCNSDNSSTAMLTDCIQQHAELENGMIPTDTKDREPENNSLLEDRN
The series is described as follows: TREK-2 thallium flux assay (hTREK-2/HEK). The conditions noted are these: for Emax: % activation relative to 10 µM BL-1249; for Fold TREK-2: TREK-2 preference over TREK-1, thallium flux. It is filed as cell-based. The arrangement: expressed in transfected cells; host or cells: HEK293. The method, then:
Procedures for Biological Experiments
TREK-1 and TREK-2 thallium flux assay protocol […]
HEK293 cells stably expressing human TREK-2 (hTREK-2/HEK) were constructed at Ono. hTREK-1/CHO or hTREK-2/HEK were plated in 384-well plates at a density of 1.0x10^4 cells/well or 2.0x10^4 cells/well, respectively, and cultured overnight. After the wash by HBSS + 20 mM HEPES buffer, cells were loaded with Thallos dye for 1 hour at room temperature. After the wash […]
dissolved with HBSS + 20mM HEPES buffer were added to each well. After 10 minutes incubation at room temperature, thallium stimulus buffer were added to each well and the fluorescent intensity are measured by Panoptic. The final thallium concentration was 0.36 mM in […]
TREK-1 or 0.24 mM in TREK-2, respectively. […]

Series [2] in a line: mouse predicted hepatic clearance. The format is in vitro ADME. The method, then:
Intrinsic clearance: Human or rat hepatic microsomes (0.5 mg/mL) and 1 µM test compound were incubated in 100 mM potassium phosphate pH 7.4 buffer with 3 mM MgCl2 at 37 °C with constant shaking. After a 5 min preincubation, the reaction was initiated by the addition of NADPH (1 mM). At selected time intervals (0, 3, 7, 15, 25, and 45 min), aliquots were taken and subsequently placed into a 96-well plate containing cold acetonitrile with internal standard (50 ng/mL carbamazepine). Plates were then centrifuged at 3000 rcf (4 °C) for 10 min, and the supernatant was transferred to a separate 96-well plate and diluted 1:1 with water for LC/MS/MS analysis. The in vitro half-life ( 1/2, min, Eq. 1), intrinsic clearance (CLint, mL/min/kg, Eq. 2), and subsequent predicted hepatic clearance (CLhep, mL/min/kg, Eq. 3) was determined employing the […]
where k represents the slope from linear regression analysis of the natural log percent remaining of a test compound as a function of incubation time […]
(2) CLint = in vitroT1/2 x mg microsomes x gram liver x kg body wt ascale-up factors: of 20 (human) or 45 (rat) […]
where Qh (hepatic blood flow, mL/min/kg) is 21 (human) or 70 (rat).
LC/MS/MS Bioanalysis of Samples from Plasma Protein Binding and Intrinsic Clearance […]
Samples were analyzed on a Thermo Electron TSQ Quantum Ultra triple quad mass spectrometer (San Jose, CA) via electrospray ionization (ESI) with two Themo Electron Accella pumps (San Jose, CA), and a Leap Technologies CTC PAL autosampler (Carrboro, NC). Analytes were separated by gradient elution on a dual column system with two Thermo Hypersil Gold (2.1 x 30 mm, 1.9 µm) columns (San Jose, CA) thermostated at 40 °C. HPLC mobile phase A was 0.1% formic acid in water and mobile phase B was 0.1% formic acid in acetonitrile. The gradient started […]
for 0.2 min; returned to 10% B in 0.1 min. The total run time was 1.3 min and the HPLC flow rate was 0.8 mL/min. […]

Series [3] is described as follows: mouse plasma protein binding. It is filed as in vitro ADME. Particulars: pH 7.4, read-out: mouse plasma fu. The method, then:
as §1, §2, §3, §4

The next series relates to TASK-1. Nature of the series: human 86Rb flux K2P selectivity panel. It is filed as cell-based. The conditions noted are these: 86Rb flux K2P panel.
The test system of the next series is TRAAK. Nature of the series: human 86Rb flux K2P selectivity panel. It is filed as cell-based. The conditions noted are these: 86Rb flux K2P panel.
[4] abbreviates: Sprague-Dawley, intravenous, rat cassette PK study.

Molecules are shown by their SMILES. Several values for one entry are separate records, joined by “and”; a condition that tells them apart may be missing. Equal entries are not always repeated. Where two headings read alike, the source gives them in different places. Some results are limits rather than exact numbers.

One may read the EC50 as the concentration giving half of the maximal effect. The low end stands for a more potent agent, the high end for a less potent agent. The term Emax denotes the greatest response seen or fitted, relative to the assay's reference. Consider `CS(=O)(=O)Nc1ccc(C(=O)NCc2ccc(Cl)cc2Cl)cc1` [Compound 13], for which, in series [1], the fraction unbound at 6 h, 5 µM worked out at 0.027. Further, in the series “rat PK study” (rat PK profile), the clearance stood at 3.5 mL/min/kg, the Vd turned out to be 0.787 L/kg and the half-life is 3 h. At TREK-2, the EC50 turned out to be 3200 nM, the Emax worked out at 155% and the “Fold TREK-2” value is reported as approximately 3 fold.

On to `O=C(NCc1ccc(Br)cc1Cl)c1ccc(-c2ncn[nH]2)cc1` [Compound 14a], for which the “mouse CLhep (predicted hepatic clearance)” value in series [2] was 33.0 mL/min/kg. Further, the fraction unbound at 6 h, 5 µM in series [3] stood at 0.022. For the same molecule, in the series “rat PK study” (setting [4]), the clearance amounted to 20.5 mL/min/kg, the Vd is 1.5 L/kg and the half-life is 1.1 h. In addition, on TREK-2, the EC50 amounted to 730 nM and the maximal response (Emax) amounted to 183%.

On to `Cc1cc(OC(F)(F)F)ccc1CNC(=O)c1ccc2ncnn2c1` [Compound 19a], for which the “mouse CLhep (predicted hepatic clearance)” value in series [2] is 30.5 mL/min/kg. For the same molecule, the fraction unbound at 6 h, 5 µM in series [1] worked out at 0.075. Also, the fraction unbound at 6 h, 5 µM in series [3] came out at 0.1. Besides, on TREK-2, the concentration for a half-maximal effect (EC50) came to 150 nM, the Emax amounted to 160% and the “Fold TREK-2” value stood at 25.3 fold.

With `O=C(NCc1ccc(OC(F)(F)F)cc1F)c1ccc2ncnn2c1` [Compound 19b], the “mouse CLhep (predicted hepatic clearance)” value in series [2] is recorded as 17.8 mL/min/kg. In addition, the fraction unbound at 6 h, 5 µM in series [1] was 0.075. Also, the fraction unbound at 6 h, 5 µM in series [3] worked out at 0.24. For the same molecule, the “selectivity against TASK-1 over TREK-2” value with TASK-1 is more than 150 fold. The “selectivity against TRAAK over TREK-2” value in the series with TRAAK is listed as more than 150 fold. For the same molecule, at TREK-2, the half-maximal effective concentration (EC50) is 300 nM, the Emax amounted to 184% and the “Fold TREK-2” value was determined as 9.3 fold.

For `O=C(NCc1ccc(OC(F)(F)F)cc1Cl)c1ccc2nncn2c1` [Compound 20], the “selectivity against TASK-1 over TREK-1/2” value in the series with TASK-1 is > 91 fold and > 85 fold. The “selectivity against TRAAK over TREK-1” value in the series with TRAAK is 85 fold and > 85 fold.
